Experimental data reported in patent US9067930B2, “2-oxo-piperidinyl derivatives” (UCB Pharma, S.A., priority 2011, dated 2015).

Tests used:
CGRP release = settings: after electrical stimulation of the trigeminal ganglion; cited from earlier work
[1] = tested on: dural protein extravasation induced by electrical stimulation of the trigeminal ganglion; experiment: Plasma protein extravasation (PPE) / dural extravasation model of migraine; type: in vivo; settings: rat
Text: 5-HT7 antagonists are expected to have efficacy in the prophylactic (and potentially acute) treatment of migraine by: • 1) Preventing serotonin-induced vasodilatation of cranial blood vessels (Matthys, A., et al., Role of the 5-HT7 receptor in the central nervous system: from current status to future perspectives. Molecular Neurobiology, 2011; Leopoldo, M., et al., Serotonin 5-HT7 receptor agents: Structure-activity relationships and potential therapeutic applications in central nervous system disorders. Pharmacology & Therapeutics, 2011, 129, 120-148; Hedlund, P. B., The 5-HT7 receptor and disorders of the nervous system: an overview. Psychopharmacology, 2009, 206, 345-354). Contrary to the triptans, 5-HT7 antagonists would only reverse a pre-existing vasodilatation, without producing vasoconstriction by themselves. This would make 5-HT7 antagonists, in contrast to triptans, compatible with chronic use and therefore with prophylactic treatment. • 2) By inhibiting peripheral and central sensitization. […] In this rat model of migraine, dural protein extravasation is induced by electrical stimulation of the trigeminal ganglion. […]
The level of fluorescence in dura maters ipsi- and contra-lateral to the trigeminal ganglia stimulation is quantified with a digital camera (Hamamatsu C4742-98 filter for FITC objective Nikon 2.8×) and analysis software (WIT5.3, Logical vision).

CC1CCN(CC[C@H]2CCCN2S(=O)(=O)c2cccc(O)c2)CC1 [SB-269970]
release of CGRP (CGRP release): inhibits the release of CGRP
inhibition of neurogenic inflammation / reduction of protein extravasation [1]: Inhibition of neurogenic inflammation
human coronary artery contraction (human coronary artery): does not induce human coronary artery contraction
